Data reported in patent US9988381B2, “Five-member-heterocycle fused pyridine compounds, method of producing the same, and use thereof” (SHANGHAI INSTITUTE OF MATERIA MEDICA, CHINESE ACADEMY OF …, priority 2013, dated 2018).
Where two headings read alike, the source gives them in different places.

Tests used:
[1] = target: T1, c-Met kinase domain recombinant protein (Homo sapiens, UniProt P08581); experiment: biochemical; settings: read-out: Inhibition rate at 10 μM (%)
T1 construct: 50 μL diluted solution of c-Met kinase domain recombinant protein in reaction buffer was added to initiate the reaction
Method: (§1) Enzymatic reaction substrate Poly(Glu,Tyr)4:1 was diluted to 20 μg/mL in potassium ion free PBS (10 mM sodium phosphate buffer, 150 mM NaCl, pH7.2-7.4), microplate was coated with this solution at 125 μL per well, and reacted at 37° C. for 12-16 hours. Liquid in wells was discarded. Plate washing: the plate was washed 3 times for 5 minutes each with 200 μL per well of T-PBS (potassium ion free PBS containing 0.1% Tween-20).
Into each well was added 49 μL diluted ATP solution in reaction buffer (50 mM HEPES pH 7.4, 50 mM MgCl2, 0.5 mM MnCl2, 0.2 mM Na3VO4, 1 mM DTT), and 1 μL per well of compound to be tested was added, then 50 μL diluted solution of c-Met kinase domain recombinant protein in reaction buffer was added to initiate the reaction, each test was setup with two wells of ATP free control. Reaction was performed in a 37° C. shaker (100 rpm) for 1 hour. Liquid in the wells was discarded, and the plate was washed three times with T-PBS.
Antibody PY99 was added at 100 μL per well (the antibody was 1:500 diluted in T-PBS containing 5 mg/mL BSA), incubated in a 37° C. shaker for 0.5 hour. Liquid in the wells was discarded, and the plate was washed three times with T-PBS.
Goat anti mouse secondary antibody labeled with horseradish peroxidase was added at 100 μL per well (the antibody was 1:2000 diluted in T-PBS containing 5 mg/mL BSA), incubated in a 37° C. shaker for 0.5 hour. Liquid in the wells was discarded, and the plate was washed three times with T-PBS.
Reaction was terminated by adding 50 μL per well of 2M H2SO4, the plate was read at 490 nm using a VERSAmax microplate reader with tunable wavelength.
(§2) Inhibition rate of the sample was calculated using the following equation: […]

[2] = target: T1, c-Met kinase domain recombinant protein; experiment: biochemical; settings: for inhibition at 0.1 µM: read-out: Average inhibition rate at 0.1 μM (%); for inhibition at 1 µM: read-out: Average inhibition rate at 1 μM (%); for inhibition at 10 µM: read-out: Average inhibition rate at 10 μM (%)
Method: as §1, with “discarded, then” for “discarded. Plate washing:”, “(PBS” for “(potassium ion free PBS”
Into each well was added 50 μL diluted ATP solution in reaction buffer (50 mM HEPES pH 7.4, 50 mM MgCl2, 0.5 mM MnCl2, 0.2 mM Na3VO4, 1 mM DTT), the final concentration was 5 μM. Test compound was diluted in DMSO to proper concentration, added at 1 μL per well or corresponding level of DMSO (negative control wells), then 49 μL diluted solution of c-Met kinase domain recombinant protein in reaction buffer was added to initiate the reaction, each test was setup with two wells of ATP free control. Reaction was performed in a 37° C. shaker (100 rpm) for 1 hour. The plate was washed three times with T-PBS. Primary antibody PY99 diluted solution was added at 100 μL per well, incubated in a 37° C. shaker for 0.5 hour.
The plate was washed three times with T-PBS. Goat anti mouse secondary antibody labeled with horseradish peroxidase was added at 100 μL per well, incubated in a 37° C. shaker for 0.5 hour. The plate was washed three times with T-PBS. […] Reaction was terminated by adding 50 μL per well of 2M H2SO4, the plate was read at 490 nm using a SPECTRA MAX 190 microplate reader with tunable wavelength.
as §2
IC50 was calculated by fitting the data for a four parameter fit using inhibition curve.

T1 sequence (P08581 1078-1345 limits assumed): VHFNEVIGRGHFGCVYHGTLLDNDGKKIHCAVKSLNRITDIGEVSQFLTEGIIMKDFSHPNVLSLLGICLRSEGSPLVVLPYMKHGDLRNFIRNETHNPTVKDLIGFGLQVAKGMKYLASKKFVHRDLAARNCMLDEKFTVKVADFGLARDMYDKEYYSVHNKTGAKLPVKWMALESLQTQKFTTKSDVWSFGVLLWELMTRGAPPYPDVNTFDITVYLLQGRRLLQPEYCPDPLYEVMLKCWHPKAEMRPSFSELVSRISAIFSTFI

| inhibition at 10 µM [1] | inhibition at 0.1 µM [2] | inhibition at 1 µM [2] | inhibition at 10 µM [2] | IC50 [2] | Compound |
| --- | --- | --- | --- | --- | --- |
| 72.4% | 9.2% | 51.6% | 72.4% |  | Cn1cc(-c2cnc3cnn(S(=O)(=O)c4ccccc4C#N)c3c2)cn1 [Compound 8, 1-(2-cyanobenzenesulfonyl)-6-[(1-methyl)-4-pyrazolyl]-1-H-pyrazolo[4,3-b]pyridine] |
| 22% |  |  | 22% |  | Cn1cc(-c2cnc3cnn(S(=O)(=O)c4ccc([N+](=O)[O-])cc4)c3c2)cn1 [Compound 9, 1-(4-nitrobenzenesulfonyl)-6-[(1-methyl)-4-pyrazolyl]-1-H-pyrazolo[4,3-b]pyridine] |
| 37.9% |  |  | 37.9% |  | COc1ccc(S(=O)(=O)n2ncc3ncc(-c4cnn(C)c4)cc32)cc1OC [Compound 10, 1-(3,4-dimethoxybenzenesulfonyl)-6-[(1-methyl)-4-pyrazolyl]-1-H-pyrazolo[4,3-b]pyridine] |
| 48.6% |  |  | 48.6% |  | Cc1noc(C)c1S(=O)(=O)n1ncc2ncc(-c3cnn(C)c3)cc21 [Compound 11, 1-(3,5-dimethylisoxazolesulfonyl)-6-[(1-methyl)-4-pyrazolyl]-1-H-pyrazolo[4,3-b]pyridine] |
| 37.5% |  |  | 37.5% |  | Cn1cc(-c2cnc3cnn(S(=O)(=O)c4ccc(F)cc4F)c3c2)cn1 [Compound 12, 1-(2,4-difluorobenzenesulfonyl)-6-[(1-methyl)-4-pyrazolyl]-1-H-pyrazolo[4,3-b]pyridine] |
| 52.6% | 28.5% | 45.3% | 52.6% |  | CC(=O)c1ccc(S(=O)(=O)n2ncc3ncc(-c4cnn(C)c4)cc32)cc1 [Compound 13, 1-(4-acetylbenzenesulfonyl)-6-[(1-methyl)-4-pyrazolyl]-1-H-pyrazolo[4,3-b]pyridine] |
| 74.3% | 39.9% | 54.7% | 74.3% |  | Cn1cc(-c2cnc3cnn(S(=O)(=O)c4ccccc4C(F)(F)F)c3c2)cn1 [Compound 14, 1-(2-trifluoromethylbenzenesulfonyl)-6-[(1-methyl)-4-pyrazolyl]-1-H-pyrazolo[4,3-b]pyridine] |
| 40.6% |  |  | 40.6% |  | Cn1cc(-c2cnc3cnn(S(=O)(=O)c4ccc(C(F)(F)F)cc4)c3c2)cn1 [Compound 15, 1-(4-trifluoromethylbenzenesulfonyl)-6-[(1-methyl)-4-pyrazolyl]-1-H-pyrazolo[4,3-b]pyridine] |
| 73.2% | 25.2% | 56.1% | 73.2% |  | Cn1cc(-c2cnc3cnn(S(=O)(=O)c4cccc(C(F)(F)F)c4)c3c2)cn1 [Compound 16, 1-(3-trifluoromethylbenzenesulfonyl)-6-[(1-methyl)-4-pyrazolyl]-1-H-pyrazolo[4,3-b]pyridine] |
| 49.9% |  |  | 49.9% |  | COc1ccc(S(=O)(=O)n2ncc3ncc(-c4cnn(C)c4)cc32)cc1 [Compound 17, 1-(4-methoxybenzenesulfonyl)-6-[(1-methyl)-4-pyrazolyl]-1-H-pyrazolo[4,3-b]pyridine] |
| 69.5% | 24.9% | 58.7% | 69.5% | 39.7 ± 6.3 nM | Cn1cc(-c2cnc3cnn(S(=O)(=O)c4cnn5cccnc45)c3c2)cn1 [Example 22, 1-(pyrazolo[1,5-a]pyrimidine-3-sulfonyl)-6-[(1-methyl)-4-pyrazolyl]-1-H-pyrazolo[4,3-b]pyridine] |
| 65.1% | 26.9% | 52.7% | 65.1% | 3.7 ± 1.4 nM | Cn1cc(-c2cnc3cnn(S(=O)(=O)c4cnc5ncccn45)c3c2)cn1 [Example 23, 1-(imidazo[1,2-a]pyrimidine-3-sulfonyl)-6-[(1-methyl)-4-pyrazolyl]-1-H-pyrazolo[4,3-b]pyridine] |
| 65.2% | 60% | 63.8% | 65.2% | 33.9 ± 6.9 nM | Cn1cc(-c2cnc3cnn(S(=O)(=O)c4cnc5ccc(C(F)(F)F)cn45)c3c2)cn1 [Example 26, 1-[(6-trifluoromethyl-imidazo[1,2-a]pyridine)-3-sulfonyl]-6-[(1-methyl)-4-pyrazolyl]-1-H-pyrazolo[4,3-b]pyridine] |
| 71% | 48.3% | 59.7% | 71% |  | O=S(=O)(c1cnc2ccccn12)n1ncc2ncc(-c3cccnc3)cc21 [Example 30, 1-(imidazo[1,2-a]pyridine-3-sulfonyl)-6-(3-pyridinyl)-1-H-pyrazolo[4,3-b]pyridine] |
| 69% | 59% | 64.1% | 69% |  | O=S(=O)(c1cnc2ccccn12)n1ncc2ncc(-c3ccoc3)cc21 [Example 31, 1-(imidazo[1,2-a]pyridine-3-sulfonyl)-6-(3-furanyl)-1-H-pyrazolo[4,3-b]pyridine] |
| 64.2% | 52.9% | 52% | 64.2% |  | O=S(=O)(c1cnc2ccccn12)n1ncc2ncc(-c3ccc(C(F)(F)F)cc3)cc21 [Example 32, 1-(imidazo[1,2-a]pyridine-3-sulfonyl)-6-(4-trifluoromethylphenyl)-1-H-pyrazolo[4,3-b]pyridine] |
| 53.7% | 39.9% | 47.3% | 53.7% |  | O=S(=O)(c1cnc2ccccn12)n1ncc2ncc(-c3ccc4ccccc4c3)cc21 [Example 33, 1-(imidazo[1,2-a]pyridine-3-sulfonyl)-6-(2-naphthyl)-1-H-pyrazolo[4,3-b]pyridine] |
| 61.3% | 31.3% | 49.3% | 61.3% |  | CS(=O)(=O)Nc1ccc(-c2cnc3cnn(S(=O)(=O)c4cnc5ccccn45)c3c2)cc1 [Example 34, 1-(imidazo[1,2-a]pyridine-3-sulfonyl)-6-(4-methylsulfamidophenyl)-1-H-pyrazolo[4,3-b]pyridine] |
| 66.3% | 45.6% | 60% | 66.3% |  | O=S(=O)(c1cnc2ccccn12)n1ncc2ncc(-c3ccc4c(c3)OCCO4)cc21 [Example 36, 1-(imidazo[1,2-a]pyridine-3-sulfonyl)-6-[6-(1,4-benzodioxanyl)]-1-H-pyrazolo[4,3-b]pyridine] |
| 87.1% | 63.2% | 63.9% | 87.1% |  | O=S(=O)(c1cnc2ccccn12)n1ncc2ncc(-c3ccc(CN4CCOCC4)cc3)cc21 [Example 38, 1-(imidazo[1,2-a]pyridine-3-sulfonyl)-6-(4-morpholinomethylphenyl)-1-H-pyrazolo[4,3-b]pyridine] |
| 66% | 45.7% | 57.4% | 66% |  | CC(=O)c1ccc(-c2cnc3cnn(S(=O)(=O)c4cnc5ccccn45)c3c2)cc1 [Example 40, 1-(imidazo[1,2-a]pyridine-3-sulfonyl)-6-(4-acetylphenyl)-1-H-pyrazolo[4,3-b]pyridine] |

| Compound | inhibition at 10 µM [1] | inhibition at 0.1 µM [2] | inhibition at 1 µM [2] | inhibition at 10 µM [2] | IC50 [2] |
| --- | --- | --- | --- | --- | --- |
| CC(C)(C)OC(=O)N1CC=C(c2cnc3cnn(S(=O)(=O)c4cnc5ccccn45)c3c2)CC1 [Example 35, 1-(imidazo[1,2-a]pyridine-3-sulfonyl)-6-[(1-t-butoxycarbonyl)-4-(1,2,3,6-tetrahydropyridinyl)]-1-H-pyrazolo[4,3-b]pyridine] | 62.5% | 51.1% | 53.2% | 62.5% |  |
